Laboratory results from US20100120703A1, “COMPOSITIONS AND METHODS FOR TREATING CANCER” (priority 2007, published 2010).

Columns and labels:
Sprague Dawley (SD) rats = assay: Histological analysis and GST-p immunostaining of liver, promotion stage; format: in vivo, rat
From the text: In the promotion stage experiment, rats in the negative control group received weekly intraperitoneal (i.p.) injection of DMSO for the first 2 weeks and then Corn Oil for the rest of the schedule. Rats in the positive control and SIN-treatment groups both received weekly intraperitoneal (i.p.) injection of the carcinogen DEN for the first 2 weeks and then promoter, Carbon Tetrachloride (CCl4) for the rest of the schedule. Two weeks of fasting were inserted between the initiator carcinogen treatment and the promoter CCl4 treatment. During the fasting period of 2 weeks, rats were fasted for 5 days, followed by a 2 day feeding, and another 5 days of fasting. Water was given ad libitum. Negative and positive control groups received oral treatment of water once a day after fasting. Sinigrin with dosage 15 mg/kg was administered orally to the treatment group daily for 28 weeks after fasting.
Histological analysis was performed to observe the basic structure of the hepatocytes. Xylene was purchased from Mallinckrodt. Ethanol was purchased from BDH. ABC staining (Anti-rabbit) kit (sc-2018) was purchased from Santa Cruz. Superfrost Microscope slide was purchased from Fisher. 30% H2O2, DAB and Formaldehyde were purchased from Sigma. Anti-GST-pi rabbit polyclonal antibody was purchased from MBL.
The liver samples were fixed with 10% formaldehyde and put in cassettes for dehydration and fixed with wax. […]

[1] = test system: rats previously treated with dimethylhydrazine (DMH); details: cited from earlier work

C=CC/C(=N/OS(=O)(=O)[O-])S[C@@H]1OC(CO)[C@@H](O)C(O)C1O.[K+] (stereo partly shown) [SIN, sinigrin]
hepatocyte structure in liver sections (H&E) (Sprague Dawley (SD) rats; 15 mg/kg oral daily): the basic structure of hepatocytes and the central vein were restored
GST-p positive area / whole section area (Sprague Dawley (SD) rats; positive control 35%): 5%
apoptosis in colonic tissue vs DMH only ([1]; DMH treated rats): higher level of apoptosis
aberrant crypt foci in colonic tissue ([1]; sinigrin administered after DMH): suppresses induction of aberrant crypt foci
